In PubChem BioAssay AID2042 (NMMLSC, 2009) one finds EC50 and Ki data, which are given here for 51 compounds.

This test concerns the target GTPase HRas (Homo sapiens) (UniProt P01112). Nature of the test: mutant Ras fluorescent GTP loading blockade – biochemical, oxadiazole analogs, activated mutant, multiplex flow cytometry, SAR follow-up (AID 2042). The settings on record: GST-Ras beads, Bodipy-FL-GTP binding; for Ki: measured here: Ki calculated from EC50.

Structures are written as SMILES. Calls of active or inactive are those of the source.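 Rule for the calls: active = EC50 at most 30 µM plus a dose-response curve spanning at least 25% response; inactive = the rest.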

Sequence of GTPase HRas (Homo sapiens) (P01112 whole entry, looked up): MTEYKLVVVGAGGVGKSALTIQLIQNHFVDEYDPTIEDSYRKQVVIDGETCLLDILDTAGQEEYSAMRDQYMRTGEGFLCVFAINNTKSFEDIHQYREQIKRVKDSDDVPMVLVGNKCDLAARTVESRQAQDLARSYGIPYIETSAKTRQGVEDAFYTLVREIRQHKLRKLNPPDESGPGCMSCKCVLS

For the compound `COc1cccc(-c2noc(CCC(=O)N3CCN(c4cc(C)ccc4C)CC3)n2)c1`, the EC50 result was “inactive” and the Ki was 0.28 µM.
As for `COc1ccc(-c2noc(CCC(=O)N3CCN(c4ccccc4)CC3)n2)cc1`, the EC50 was > 30 µM (inactive).
In the case of `COc1ccc(-c2noc(CCC(=O)N3CCN(c4cccc(F)c4)CC3)n2)cc1`, the EC50 is > 30 µM (inactive).
The same measure, in the same setting: the value for `COc1ccc(-c2noc(CCC(=O)N3CCN(c4cccc(C(F)(F)F)c4)CC3)n2)cc1` was > 30 µM (inactive); that for `COc1ccc(-c2noc(CCC(=O)N3CCN(c4ccccc4Cl)CC3)n2)cc1` was > 30 µM (inactive).
On the same count and under the same terms, the value for `Cc1ccc(C)c(N2CCN(C(=O)CCc3nc(-c4cccc(Br)c4)no3)CC2)c1` was > 30 µM (inactive); that for `COc1ccc(-c2noc(CCC(=O)N3CCN(c4cccc(C)c4)CC3)n2)cc1` was > 30 µM (inactive); that for `Cc1ccc(-c2noc(CCC(=O)N3CCN(c4cc(C)ccc4C)CC3)n2)cc1` was > 30 µM (inactive).
In the case of `COc1ccc(-c2noc(CCC(=O)N3CCN(c4cc(C)ccc4C)CC3)n2)cc1`, the EC50 result was “inactive” and the Ki was 0.12 µM.
On to `Cc1ccc(C)c(N2CCN(C(=O)CCc3nc(-c4cccc(C(F)(F)F)c4)no3)CC2)c1`, for which the EC50 was > 30 µM (inactive).
Same read-out and setting: to `COc1ccc(-c2noc(CC(=O)N3CCN(c4cc(C)ccc4C)CC3)n2)cc1` belongs > 30 µM (inactive); to `Cc1ccc(C)c(N2CCN(C(=O)CCc3nc(-c4ccc(F)cc4)no3)CC2)c1`, > 30 µM (inactive); to `COc1ccc(-c2coc(CCC(=O)N3CCN(c4cc(C)ccc4C)CC3)n2)cc1`, > 30 µM (inactive).
Still for that read-out and setting: the value for `COc1ccc(-c2noc(CCC(=O)N3CCN(c4ccc(C)cc4)CC3)n2)cc1` was > 30 µM (inactive); that for `Cc1ccc(C)c(N2CCN(C(=O)CCc3nc(-c4cccc(F)c4)no3)CC2)c1` was > 30 µM (inactive).
On the same count and under the same terms, to `COc1ccc(-c2noc(CCCC(=O)N3CCN(c4cc(C)ccc4C)CC3)n2)cc1` belongs > 30 µM (inactive); to `COc1ccc(-c2cc(CCC(=O)N3CCN(c4cc(C)ccc4C)CC3)[nH]n2)cc1`, > 30 µM (inactive); to `COc1ccc(-c2noc(CCC(=O)N3CCN(c4ccc(OC)cc4)CC3)n2)cc1`, > 30 µM (inactive).
For `COc1ccc(-c2noc(CCC(=O)N3CCN(c4ccccc4OC)CC3)n2)cc1`, the EC50 is > 30 µM (inactive).
Same read-out and setting: the value for `COc1ccc(-c2noc(CCC(=O)N3CCN(c4ccccc4C(F)(F)F)CC3)n2)cc1` was > 30 µM (inactive).
Consider `COc1ccc(-c2noc(CCC(=O)N3CCC(c4cc(C)ccc4C)CC3)n2)cc1`, for which the EC50 is > 30 µM (inactive).
Consider `Cc1ccc(C)c(N2CCN(C(=O)CCc3nc(-c4ccccc4Cl)no3)CC2)c1`, for which the EC50 is > 30 µM (inactive).
Same read-out and setting: the value for `Cc1ccc(C)c(N2CCN(C(=O)CCc3nc(-c4ccc(N(C)C)cc4)no3)CC2)c1` was > 30 µM (inactive).
Same read-out and setting: to `COc1ccc(-c2cccc(CCC(=O)N3CCN(c4cc(C)ccc4C)CC3)c2)cc1` belongs > 30 µM (inactive).
Still for that read-out and setting: to `COc1ccc(-c2noc(CCCCC(=O)N3CCN(c4cc(C)ccc4C)CC3)n2)cc1` belongs > 30 µM (inactive); to `Cc1ccc(C)c(N2CCN(C(=O)CCc3nc(-c4ccccc4C)no3)CC2)c1`, > 30 µM (inactive); to `COc1ccc(-c2noc(CCC(=O)N3CCN(c4ccc(F)cc4)CC3)n2)cc1`, > 30 µM (inactive).
For the compound `Cc1ccc(C)c(N2CCN(C(=O)CCc3nc(-c4ccccc4C(F)(F)F)no3)CC2)c1`, the EC50 is > 30 µM (inactive).
The same measure, in the same setting: the value for `COc1ccc(-c2ccc(CCC(=O)N3CCN(c4cc(C)ccc4C)CC3)[nH]2)cc1` was > 30 µM (inactive).
The same measure, in the same setting: to `COc1ccc(-c2noc(CCC(=O)N3CCN(c4ccccc4C)CC3)n2)cc1` belongs > 30 µM (inactive).
The same measure, in the same setting: the value for `Cc1ccc(C)c(N2CCN(C(=O)CCc3nc(-c4ccc(Br)cc4)no3)CC2)c1` was > 30 µM (inactive); that for `COc1ccccc1-c1noc(CCC(=O)N2CCN(c3cc(C)ccc3C)CC2)n1` was > 30 µM (inactive); that for `Cc1ccc(C)c(N2CCN(C(=O)CCc3nc(-c4ccc(C(F)(F)F)cc4)no3)CC2)c1` was > 30 µM (inactive).
Turning to `COc1ccc(-c2ccc(CCC(=O)N3CCN(c4cc(C)ccc4C)CC3)o2)cc1`, the EC50 was > 30 µM (inactive).
Same read-out and setting: the value for `COc1ccc(-c2noc(CCC(=O)N3CCN(c4cccc(OC)c4)CC3)n2)cc1` was > 30 µM (inactive); that for `COc1ccc(-c2ccc(CCC(=O)N3CCN(c4cc(C)ccc4C)CC3)s2)cc1` was > 30 µM (inactive); that for `Cc1ccc(C)c(N2CCN(C(=O)CCc3nc(-c4ccc(Cl)cc4)no3)CC2)c1` was > 30 µM (inactive).
Take `COc1ccc(-c2noc(CCC(=O)N3CCN(c4ccccc4Br)CC3)n2)cc1`: the EC50 was > 30 µM (inactive).
`COc1ccc(-c2noc(CCC(=O)N3CCN(c4ccc(Br)cc4)CC3)n2)cc1`: the EC50 is > 30 µM (inactive).
As for `COc1ccc(-c2noc(CCC(=O)N3CCN(c4ccc(Cl)cc4)CC3)n2)cc1`, the EC50 was > 30 µM (inactive).
As for `COc1ccc(-c2noc(CCC(=O)N3CCN(c4ccc(C(F)(F)F)cc4)CC3)n2)cc1`, the EC50 was > 30 µM (inactive).
`COc1ccc(-c2noc(CCC(=O)N3CCN(c4ccccc4F)CC3)n2)cc1`: the EC50 entry was “inactive” and the Ki was 0.06 µM.
Regarding `Cc1cccc(-c2noc(CCC(=O)N3CCN(c4cc(C)ccc4C)CC3)n2)c1`, the EC50 is > 30 µM (inactive).
With `Cc1ccc(C)c(N2CCN(C(=O)CCc3nc(-c4cccc(Cl)c4)no3)CC2)c1`, the EC50 is > 30 µM (inactive).
Still for that read-out and setting: the value for `COc1ccc(-c2noc(CCC(=O)N3CCN(c4cccc(Cl)c4)CC3)n2)cc1` was > 30 µM (inactive).
`Cc1ccc(C)c(N2CCN(C(=O)CCc3nc(-c4ccccc4)no3)CC2)c1`: the EC50 is > 30 µM (inactive).
On the same count and under the same terms, the value for `Cc1ccc(C)c(N2CCN(C(=O)CCc3nc(-c4ccccc4Br)no3)CC2)c1` was > 30 µM (inactive); that for `COc1ccc(-c2cc(CCC(=O)N3CCN(c4cc(C)ccc4C)CC3)on2)cc1` was > 30 µM (inactive).
On the same count and under the same terms, the value for `COc1ccc(-c2noc(CCC(=O)N3CCN(c4cccc(Br)c4)CC3)n2)cc1` was > 30 µM (inactive); that for `COc1ccc(-c2noc(CCC(=O)N3CCN(c4cccc(C)c4C)CC3)n2)cc1` was > 30 µM (inactive); that for `Cc1ccc(C)c(N2CCN(C(=O)CCc3nc(-c4ccccc4F)no3)CC2)c1` was > 30 µM (inactive).

The term EC50 denotes the midpoint of the concentration-response curve. Broadly, the Ki is a measure of affinity in units of concentration, obtained from inhibition or displacement.
